Laboratory results from patent US11731943B2, “Therapeutic compounds, compositions and methods of use thereof” (priority 2016, dated 2023).
Read-outs that look alike come from different tables or passages of the source.

Assays:
[1] = molecular target: isolated recombinant JAK1 kinase domain (Homo sapiens (Human), UniProt P23458); assay: JAK1 enzyme assay (Caliper LabChip, Ki); type: biochemical
Summary of the method: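 Recombinant human JAK1 kinase domain phosphorylating an N-terminally 5-carboxyfluorescein-labelled JAK3-derived peptide, 30 min at 22 °C, stopped with EDTA (50 mM final). Phosphorylated fraction of total peptide read by Caliper LabChip mobility shift; Ki from Morrison tight-binding fit corrected for ATP competition (Ki=Ki,app/(1+[ATP]/Km,app)).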

[2] = molecular target: isolated recombinant JAK2 kinase domain (Homo sapiens (Human), UniProt O60674); assay: JAK2 enzyme assay (Caliper LabChip, Ki); type: biochemical
Summary of the method: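 Recombinant human JAK1 or JAK2 kinase domain phosphorylating a 5-carboxyfluorescein-labelled JAK3-derived peptide; 30 min at 22 °C, stopped with EDTA (50 mM final). Phosphorylated product measured as a fraction of total peptide by Caliper LabChip mobility shift.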

[3] = test system: JAK1-dependent STAT6 phosphorylation downstream of IL-13 stimulation in BEAS-2B human bronchial epithelial cells; assay: JAK1 pathway assay in BEAS-2B cells (IL-13-pSTAT6, MSD); type: cell-based; conditions: Homo sapiens, BEAS-2B, BEAS-2B cells, IL-13 stimulation; read-out: IL-13 p-STAT6 BEAS-2B IC50

Sequence of isolated recombinant JAK2 kinase domain (O60674 849-1124): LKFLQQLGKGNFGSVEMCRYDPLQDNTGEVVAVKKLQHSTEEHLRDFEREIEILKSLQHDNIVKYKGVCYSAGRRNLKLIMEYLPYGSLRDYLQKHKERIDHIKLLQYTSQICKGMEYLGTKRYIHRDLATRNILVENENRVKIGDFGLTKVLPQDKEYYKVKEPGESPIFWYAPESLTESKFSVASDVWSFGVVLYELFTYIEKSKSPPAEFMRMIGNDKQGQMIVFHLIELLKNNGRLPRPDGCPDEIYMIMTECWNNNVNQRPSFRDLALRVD
Sequence of isolated recombinant JAK1 kinase domain (P23458 875-1153): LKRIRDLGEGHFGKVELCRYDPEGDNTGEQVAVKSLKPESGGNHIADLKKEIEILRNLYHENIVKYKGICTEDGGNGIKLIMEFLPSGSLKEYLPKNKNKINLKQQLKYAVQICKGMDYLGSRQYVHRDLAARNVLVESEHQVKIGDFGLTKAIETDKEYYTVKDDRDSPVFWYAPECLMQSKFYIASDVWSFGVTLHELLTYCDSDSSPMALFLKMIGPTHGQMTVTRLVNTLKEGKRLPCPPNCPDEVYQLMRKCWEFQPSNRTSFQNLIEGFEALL

Compound CCn1ccc(-c2ccc(CN3CCC(CC#N)(n4cc(C(N)=O)c(NC(=O)OC)n4)C(F)C3)cc2)n1 (stereo not drawn) [Example 216, methyl N-[4-carbamoyl-1-[4-(cyanomethyl)-1-[[4-(1-ethylpyrazol-3-yl)phenyl]methyl]-3-fluoro-4-piperidyl]pyrazol-3-yl]carbamate] has a Ki ([1]; read-out: JAK1 Ki) of 0.74 nM, a Ki [2] of 0.7 nM and an IC50 [3] of 40 nM.
N#CCC1(n2cc(C(N)=O)c(NC(=O)C3CC3)n2)CCN(Cc2cccc(F)c2)CC1 [Example 56] showed a Ki ([1]; read-out: JAK1 Ki) of 2.4 nM, a Ki [2] of 24.3 nM and an IC50 [3] of 363 nM.
For N#CCC1(n2cc(C(N)=O)c(NC(=O)C3CC3)n2)CCN(CC2CCC(c3ccccc3)CC2)CC1F (stereo not drawn) [Example 233, 1-[4-(cyanomethyl)-3-fluoro-1-[(4-phenylcyclohexyl)methyl]-4-piperidyl]-3-(cyclopropanecarbonylamino) pyrazole-4-carboxamide], the Ki ([1]; read-out: JAK1 Ki) was 0.3 nM, the Ki [2] was 0.45 nM and the IC50 [3] was 39 nM.
N#CC[C@]1(n2cc(C(N)=O)c(NC(=O)C3CC3)n2)CC[C@H](NCc2ccccc2Cl)CC1 [Example 117] was tested, and the Ki [1] was 3.7 nM, the Ki [2] was 54.7 nM and the IC50 [3] was 611 nM.
COC(=O)Nc1nn(C2(CC#N)CCN(Cc3ccc(C4=CCCC4)nc3F)CC2F)cc1C(N)=O (stereo not drawn) [Example 272, methyl N-[4-carbamoyl-1-[4-(cyanomethyl)-1-[[6-(cyclopenten-1-yl)-2-fluoro-3-pyridyl]methyl]-3-fluoro-4-piperidyl]pyrazol-3-yl]carbamate] showed a Ki ([1]; read-out: JAK1 Ki) of 0.68 nM, a Ki [2] of 1.6 nM and an IC50 [3] of 67 nM.
With N#CCC1(n2cc(C(N)=O)c(NC(=O)C3CC3)n2)CCC(N2CC(F)(c3ccccc3)C2)CC1 (stereo not drawn) [Example 205, 1-[1-(cyanomethyl)-4-(3-fluoro-3-phenyl-azetidin-1-yl)cyclohexyl]-3-(cyclopropanecarbonylamino) pyrazole-4-carboxamide] the Ki ([1]; read-out: JAK1 Ki) was 0.89 nM, the Ki [2] was 5.9 nM and the IC50 [3] was 82 nM.
In the case of N#CCC1(n2cc(C(N)=O)c(NC(=O)C3CC3)n2)CCN(Cc2ccc(-c3ccc(C(F)(F)F)cc3)cc2)CC1 [Example 151, 1-[4-(cyanomethyl)-1-[[4-[4-(trifluoromethyl)phenyl]phenyl]methyl]-4-piperidyl]-3-(cyclopropanecarbonylamino) pyrazole-4-carboxamide], the Ki ([1]; read-out: JAK1 Ki) is reported as 3.4 nM, the Ki [2] is reported as 154 nM and the IC50 [3] is reported as 286 nM.
Compound CCc1nc(-c2ccc(CN3CCC(CC#N)(n4cc(C(N)=O)c(NC(=O)OC)n4)C(F)C3)cc2)cs1 (stereo not drawn) [Example 252, methyl N-[4-carbamoyl-1-[4-(cyanomethyl)-1-[[4-(2-ethylthiazol-4-yl)phenyl]methyl]-3-fluoro-4-piperidyl]pyrazol-3-yl]carbamate] has a Ki ([1]; read-out: JAK1 Ki) of 0.3 nM, a Ki [2] of 0.52 nM and an IC50 [3] of 22 nM.
COC(=O)Nc1nn(C2(CC#N)CCN(Cc3ccc(-n4ncc(C)n4)cc3)CC2F)cc1C(N)=O (stereo not drawn) [Example 267, methyl N-[4-carbamoyl-1-[4-(cyanomethyl)-3-fluoro-1-[[4-(4-methyltriazol-2-yl)phenyl]methyl]-4-piperidyl]pyrazol-3-yl]carbamate] showed a Ki ([1]; read-out: JAK1 Ki) of 0.86 nM, a Ki [2] of 0.84 nM and an IC50 [3] of 51 nM.
In the case of CCc1ccc(-c2ccc(CN3CCC(CC#N)(n4cc(C(N)=O)c(NC(=O)C5CC5)n4)CC3)cc2)cc1 [Example 155, 1-[4-(cyanomethyl)-1-[[4-(4-ethylphenyl)phenyl]methyl]-4-piperidyl]-3-(cyclopropanecarbonylamino) pyrazole-4-carboxamide], the Ki ([1]; read-out: JAK1 Ki) is reported as 0.6 nM, the Ki [2] is reported as 7.3 nM and the IC50 [3] is reported as 60 nM.
N#CCC1(n2cc(C(N)=O)c(NC(=O)C3CC3)n2)CCN(Cc2cc(O)c(-c3ccccc3)cc2F)CC1 [Example 191, 1-[4-(cyanomethyl)-1-[(2-fluoro-5-hydroxy-4-phenyl-phenyl)methyl]-4-piperidyl]-3-(cyclopropanecarbonylamino) pyrazole-4-carboxamide] gave a Ki ([1]; read-out: JAK1 Ki) of 0.2 nM, a Ki [2] of 0.32 nM and an IC50 [3] of 82 nM.
Compound N#CCC1(n2cc(C(N)=O)c(NC(=O)C3CC3)n2)CCN(Cc2ccc(-c3ccccc3F)cc2)CC1 [Example 142, 1-[4-(cyanomethyl)-1-[[4-(2-fluorophenyl)phenyl]methyl]-4-piperidyl]-3-(cyclopropanecarbonylamino) pyrazole-4-carboxamide] has a Ki ([1]; read-out: JAK1 Ki) of 1.7 nM, a Ki [2] of 12.9 nM and an IC50 [3] of 60 nM.
